Source: patent US20240270740A1, “INHIBITORS OF CYCLIC GMP-AMP SYNTHASE AND USES THEREOF” (Ventus Therapeutics U.S., Inc., priority 2022, published 2024)

What follows are molecules tested against hcGAS (Homo sapiens, UniProt Q8N884) (assay: hcGAS LCMS assay (direct measurement of cGAMP production)). Settings: 0.5 nM hcGAS, 100 μM ATP, 100 μM GTP, 25 nM dsDNA, 4 h incubation.
Type: biochemical
Procedure: cGAS catalyzes the cyclization of ATP and GTP to produce cGAMP, which is the activating ligand of STING. Human cGAS (hcGAS) inhibition can thus be quantified by measuring how much cGAMP is formed either indirectly, by monitoring ATP-depletion as in the hcGAS Kinase-Glo assay (as described below), or directly, such as using the hcGAS LCMS assay (as described below).
Compounds were tested for their h-cGAS inhibition activity using direct measurement of cGAMP production by LC/MS. Briefly, compounds were incubated with enzyme and substrates for 4 hours (see Table C), before the reaction was stopped with 3 volumes of 70/30 Acetonitrile/H2O mix containing 0.15 mM cGAMP-^13C10^5N5 as internal standard and mixed for […]. After centrifugation (3700 rpm, 10 min, 10° Celsius), […] of each reaction was collected and mixed to equal volume of Acetonitrile. Samples were then analyzed on Qexective (Column: XBridge BEH Amide Column, 130 Å, 3.5 μm, 3 mm×50 mm, Mobile phase A: 10 mM Ammonium acetate in 95/5% H2O/Acetonitrile (0.5% DMSO), Mobile phase B: Acetonitrile (0.5% DMSO).
The results of the assay, expressed as IC50 values, are reported in Table D with the following designations: A represents an IC50 value<0.005 μM; B represents an IC50 value≥0.005 μM and <0.02 μM, C represents an IC50 value≥0.02 μM and <0.06 μM; D represents an IC50 value≥0.06 and <0.2 μM; E represents an IC50 value≥0.2.

Sequence of hcGAS (Q8N884 whole entry): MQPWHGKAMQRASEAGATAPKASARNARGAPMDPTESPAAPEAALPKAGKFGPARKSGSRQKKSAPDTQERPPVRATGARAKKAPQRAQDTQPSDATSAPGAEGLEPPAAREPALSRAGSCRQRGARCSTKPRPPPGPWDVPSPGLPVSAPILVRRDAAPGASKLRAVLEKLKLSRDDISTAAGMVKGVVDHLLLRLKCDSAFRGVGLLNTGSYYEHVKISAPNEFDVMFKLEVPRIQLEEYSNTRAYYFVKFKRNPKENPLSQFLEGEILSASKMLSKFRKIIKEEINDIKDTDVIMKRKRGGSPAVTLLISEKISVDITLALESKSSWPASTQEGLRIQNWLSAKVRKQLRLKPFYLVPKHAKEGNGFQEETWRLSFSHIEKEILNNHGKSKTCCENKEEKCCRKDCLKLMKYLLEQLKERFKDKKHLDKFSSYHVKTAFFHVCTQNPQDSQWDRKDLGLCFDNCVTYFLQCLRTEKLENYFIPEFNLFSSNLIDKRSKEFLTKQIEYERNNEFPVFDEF

Row | Molecule | IC50
1 | COC[C@H](Nc1cc(C(=O)Nc2nnc(-n3nccc3C)s2)oc(=O)c1OC)c1ccccc1OC (single isomer, unassigned) [198*] | 20 to 60 nM
2 | COc1c(N2CCCS2(=O)=O)cc(C(=O)Nc2nnc(-n3nccc3C)s2)oc1=O [Compound 99, 4-(1,1-dioxidoisothiazolidin-2-yl)-3-methoxy-N-(5-(5-methyl-1H-pyrazol-1-yl)-1,3,4-thiadiazol-2-yl)-2-oxo-2H-pyran-6-carboxamide] | 20 to 60 nM
3 | COC[C@@H]1CCC[C@@H]1Nc1cc(C(=O)Nc2nnc(-n3nccc3C)s2)oc(=O)c1OC (single isomer, unassigned) [Compound 79*] | 60 to 200 nM
4 | COc1c(N[C@@H]2CCC[C@@H]2OC)cc(C(=O)Nc2nnc(-n3nccc3C)s2)oc1=O (single isomer, unassigned) [215*] | 5 to 20 nM
5 | COc1c(NC[C@@H]2CCO2)cc(C(=O)Nc2nnc(-n3nccc3C)s2)oc1=O [Compound 93, (S)-3-methoxy-N-(5-(5-methyl-1H-pyrazol-1-yl)-1,3,4-thiadiazol-2-yl)-4-((oxetan-2-ylmethyl)amino)-2-oxo-2H-pyran-6-carboxamide] | 20 to 60 nM
6 | COCCOc1c(N[C@H]2CCC[C@H]2O)cc(C(=O)Nc2nnc(-c3c(Cl)ccn3C)s2)oc1=O [Compound 85, N-(5-(3-chloro-1-methyl-1H-pyrrol-2-yl)-1,3,4-thiadiazol-2-yl)-4-(((1S,2R)-2-hydroxycyclopentyl)amino)-3-(2-methoxyethoxy)-2-oxo-2H-pyran-6-carboxamide] | 5 to 20 nM
7 | COc1c(N[C@@H]2CCCC[C@H]2OC)cc(C(=O)Nc2nnc(-n3nccc3C)s2)oc1=O [Compound 202, 3-methoxy-4-(((1R,2R)-2-methoxycyclohexyl)amino)-N-(5-(5-methyl-1H-pyrazol-1-yl)-1,3,4-thiadiazol-2-yl)-2-oxo-2H-pyran-6-carboxamide] | 5 to 20 nM
8 | COCC1(Nc2cc(C(=O)Nc3nnc(-n4nccc4C)s3)oc(=O)c2OC)CCC1 [Compound 196] | 5 to 20 nM
9 | COc1c(N[C@@H]2CCCC[C@@H]2OC)cc(C(=O)Nc2nnc(-n3nccc3C)s2)oc1=O [Compound 52, 3-methoxy-4-(((1R,2S)-2-methoxycyclohexyl)amino)-N-(5-(5-methyl-1H-pyrazol-1-yl)-1,3,4-thiadiazol-2-yl)-2-oxo-2H-pyran-6-carboxamide] | 5 to 20 nM
10 | COc1c(N2CCC[C@@H]2CC#N)cc(C(=O)Nc2nnc(-n3nccc3C)s2)oc1=O [Compound 174, (R)-4-(2-(cyanomethyl)pyrrolidin-1-yl)-3-methoxy-N-(5-(5-methyl-1H-pyrazol-1-yl)-1,3,4-thiadiazol-2-yl)-2-oxo-2H-pyran-6-carboxamide] | 20 to 60 nM
11 | 4-(((1S,2R)-2-(hydroxymethyl)cyclopentyl)amino)-3-methoxy-N-(5-(5-methyl-1H-pyrazol-1-yl)-1,3,4-thiadiazol-2-yl)-2-oxo-2H-pyran-6-carboxamide [Rac-55] | ≥ 200 nM
12 | COC[C@@]1(Nc2cc(C(=O)Nc3nnc(-n4nccc4C)s3)oc(=O)c2OC)CCOC1 (single isomer, unassigned) [Compound 100*] | 5 to 20 nM

Now from value to molecule:

Row | IC50 | Molecule
13 | < 5 nM | COC[C@@H](C)Nc1cc(C(=O)Nc2nnc(-c3c(Cl)ccn3C)s2)oc(=O)c1OC [Compound 128, (R)-N-(5-(3-chloro-1-methyl-1H-pyrrol-2-yl)-1,3,4-thiadiazol-2-yl)-3-methoxy-4-((1-methoxypropan-2-yl)amino)-2-oxo-2H-pyran-6-carboxamide]
14 | < 5 nM | COc1c(N[C@@H]2CCC[C@@H]2C#N)cc(C(=O)Nc2nnc(-n3nccc3C)s2)oc1=O (single isomer, unassigned) [Compound 73]
15 | 5 to 20 nM | COc1c(N[C@H]2CCC[C@H]2O)cc(C(=O)Nc2nnc(-n3nccc3C)s2)oc1=O [Compound 5, 4-(((1S,2R)-2-hydroxycyclopentyl)amino)-3-methoxy-N-(5-(5-methyl-1H-pyrazol-1-yl)-1,3,4-thiadiazol-2-yl)-2-oxo-2H-pyran-6-carboxamide]
16 | < 5 nM | COC[C@@H](C1CC1)N1CCOc2c1cc(C(=O)Nc1nnc(-n3nccc3C)s1)oc2=O [Compound 225, (R)-1-(1-cyclopropyl-2-methoxyethyl)-N-(5-(5-methyl-1H-pyrazol-1-yl)-1,3,4-thiadiazol-2-yl)-5-oxo-1,2,3,5-tetrahydropyrano[3,4-b][1,4]oxazine-7-carboxamide]
17 | 5 to 20 nM | COCCOc1c(NC23CC(C2)C3)cc(C(=O)Nc2nnc(-n3nccc3N)s2)oc1=O [Compound 210, N-(5-(5-amino-1H-pyrazol-1-yl)-1,3,4-thiadiazol-2-yl)-4-(bicyclo[1.1.1]pentan-1-ylamino)-3-(2-methoxyethoxy)-2-oxo-2H-pyran-6-carboxamide]
18 | < 5 nM | COc1c(N[C@@H]2CCC[C@H]2OC)cc(C(=O)Nc2nnc(-n3nccc3C)s2)oc1=O (single isomer, unassigned) [3*]
19 | 5 to 20 nM | COc1c(NC23CC(O)(C2)C3)cc(C(=O)Nc2nnc(-n3nccc3C)s2)oc1=O [Compound 126, 4-((3-hydroxybicyclo[1.1.1]pentan-1-yl)amino)-3-methoxy-N-(5-(5-methyl-1H-pyrazol-1-yl)-1,3,4-thiadiazol-2-yl)-2-oxo-2H-pyran-6-carboxamide]
20 | 5 to 20 nM | COC[C@H](Nc1cc(C(=O)Nc2nnc(-n3nccc3C)s2)oc(=O)c1OC)C1CC1 (single isomer, unassigned) [Compound 21*]
21 | 5 to 20 nM | COCC1(Nc2cc(C(=O)Nc3nnc(-n4nccc4C)s3)oc(=O)c2OC)COC1 [Compound 98, 3-methoxy-4-((3-(methoxymethyl)oxetan-3-yl)amino)-N-(5-(5-methyl-1H-pyrazol-1-yl)-1,3,4-thiadiazol-2-yl)-2-oxo-2H-pyran-6-carboxamide]
22 | 5 to 20 nM | COc1c(N[C@@H]2CC[C@@H]2OC)cc(C(=O)Nc2nnc(-n3nccc3C)s2)oc1=O (single isomer, unassigned) [122*]
23 | 5 to 20 nM | COC[C@@H]1CCN1c1cc(C(=O)Nc2nnc(-n3nccc3C)s2)oc(=O)c1OC [Compound 95, (S)-3-methoxy-4-(2-(methoxymethyl)azetidin-1-yl)-N-(5-(5-methyl-1H-pyrazol-1-yl)-1,3,4-thiadiazol-2-yl)-2-oxo-2H-pyran-6-carboxamide]
24 | 5 to 20 nM | COc1c(N[C@@H]2COC[C@@H]2OC)cc(C(=O)Nc2nnc(-n3nccc3C)s2)oc1=O [Compound 162, 5-methoxy-4-{[(3R,4R)-4-methoxyoxolan-3-yl]amino}-N-[5-(5-methylpyrazol-1-yl)-1,3,4-thiadiazol-2-yl]-6-oxopyran-2-carboxamide]
25 | 5 to 20 nM | COC[C@]1(Nc2cc(C(=O)Nc3nnc(-n4nccc4C)s3)oc(=O)c2OC)CCOC1 (single isomer, unassigned) [Compound 101*]
26 | < 5 nM | COc1c(N[C@@H]2CC[C@@H]2O)cc(C(=O)Nc2nnc(-c3c(Cl)ccn3C)s2)oc1=O (single isomer, unassigned) [Compound 54]
27 | < 5 nM | COCCOc1c(N[C@@H](COC)c2ccccc2)cc(C(=O)Nc2nnc(-n3nccc3C)s2)oc1=O [Compound 200, (R)-4-((2-Methoxy-1-phenylethyl)amino)-3-(2-methoxyethoxy)-N-(5-(5-methyl-1H-pyrazol-1-yl)-1,3,4-thiadiazol-2-yl)-2-oxo-2H-pyran-6-carboxamide]
